Where two headings read alike, the source gives them in different places.
Assays:
[1] = test system: antibody to sheep red blood cells; assay: 75 percent reduction of control antibody titer in mice by subcutaneous, percutaneous and oral routes (Table 16); assay type: in vivo, male Swiss mice; details: Mus musculus, Erythrocyte, × 10 daily doses commencing 3 days before antigen i.v.
Experimental: Subcutaneous, percutaneous, and oral activity have been achieved as indicated in Table 16 which follows employing representative compounds from the above entitled application. […] Except as indicated, the tests were performed using groups of five 20-gram male Swiss mice injected with 5×10^7 sheep red blood cells intravenously for each drug level. Ten (daily) administrations of drug were made commencing three days prior to red blood cell injection. On the day following the final treatment (7 days after red blood cell injection) the animals were bled by cardiac puncture, the sera from each five-mouse-group were pooled, and antibody titers of these serum pools and corresponding serum pools from control (untreated) mouse groups were determined. The results are expressed as the minimum drug dose effecting 75 percent reduction of control antibody titer: […]

[2] = test system: antibody response to sheep blood cells (hemaglutination titer); assay: Immune regulating test: suppression of hemaglutination titer by 4-fold factor in mice (i.p. drug, i.p. sheep blood cells), Tables 1-15; assay type: in vivo, Swiss mice; details: Mus musculus, ip, 192 h, × 3, intraperitoneal, minimum dose to suppress the hemaglutination titer by a 4-fold factor, 8 days after antigen, read-out: Immuno-Suppressant ED4-Fold
Summary of the method: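 Groups of five 20-gram Swiss mice received compound i.p. and sheep blood cell antigen i.p.; sera pooled per group eight days after antigen. Hemagglutination titers of pooled sera compared with controls; value is the minimum dose suppressing titer 4-fold versus control.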

[3] = test system: Salmonella typhimurium G46 missense histidine-auxotroph; assay: Qualitative in vitro prescreen for mutagenicity, G46 indicator (Table 22); details: 200 mcg disc
Text: Filter paper discs 1/4" were impregnated with 200 mcg of test compound using either H2 O or DMSO as solvent. The discs were placed on Petri dishes containing minimal media which had been individually seeded with one of the twelve tester strains. […] A uniform circle of colonies appear around the pad when a compound with mutagenic potential is present. The test compound forms a concentration gradient as it diffuses from the pad. Occasionally, there is a clear ring in close proximity to the pad surrounded by a uniform circle of revertant colonies which indicates a lethal mutation at high concentration of compound and nonlethal mutation at lesser concentration. A single pad thus allows one to test a compound over a wide range of concentrations. Histidine+ colonies were developed enough to read after 48 hr. incubation at 37° C. The plates were read as follows:
A. background zone, if present, is measured in millimeters, if not, a negative is recorded (-).
B. mutant zone is measured in millimiters, if present; if not, a negative (-) is recorded.
C. the mutation frequency can be estimated from density of mutant colonies as follows:
1. Low frequency--few colonies
2. Moderate frequency--many colonies
3. High frequency--dense ring of colonies
4. No colonies recorded (-)

[4] = test system: twelve histidine-auxotrophs of Salmonella typhimurium; assay type: cell-based
Experimental: The in vivo and in vitro mutagenic potential of 1-(6-methoxy-2-benzothiazolyl)-3-phenyl-urea was negative when tested versus the twelve histidine-auxotrophs of Salmonella typhimurium at a level of 300 mg/kg in vivo and 750 mcg/ml in vitro. Imuran and Cytoxan, compounds with immunosuppressive activity; Streptozotacin, N-nitrosodimethylamine (DMNA) and trimethylenemelamine (TEM) known mutagens and/or carcinogens; and Acetylsalicylic Acid (ASA) were used as control compounds.
The plates were read as follows:
(§1) Compounds found active in the qualitative test were further tested. The culture to be tested was grown to stationary phase in tryptone yeast broth and then diluted to a viable count of about 9×10^7 organisms per milliliter.
Eleven log4 dilutions of the test compound were made covering a range that would allow survival of nonlethal mutants. […] Final drug concentrations were calculated from 4-ml. volumes (3 ml. drug dilution +1 ml. test organism). Two of the "0" drug tubes were immediately plated at 10° dilution in minimal medium and 10^-5, 10^-6, 10^-7 dilutions in medium containing excess histidine (40 mcg/ml.) Spontaneous revertants (histidine+) were detected in the 10° dilution. Mutable population (histidine-) were detected in the 10^-5, 10^-6, and 10^-7 dilutions. […] All minimal media plates were counted. […]

[5] = test system: fatal glomerulonephritis in NZB/w mice; assay type: in vivo; details: for MST (mean survival time) / Percent Survivors: 300th day
Text: NZB/w mice provide a close model of the human autoimmune disease, lupus erythematosis. These hybrid mice develop antinuclear antoantibody in the early months of life, which antibody becomes deposited in the glomeruli in the form of a complex with the inciting antigen. A fatal glomerulonephritis ensues. A group of these mice had been placed under continuous therapy (via the feed) with 1-(6-methoxy-2-benzothiazolyl)-3-) phenyl urea for 300 days. The mice were divided into three subgroups, 10 mice receiving 75 mg/kg/day of drug, 10 mice receiving 25 mg/kg/day, and 11 mice serving as untreated controls.
In view of the close parallel of this murine model to the human counterpart, this would appear of significance in terms of long-term human therapy.

[6] = test system: Salmonella typhimurium G46 missense histidine-auxotroph; assay type: cell-based; details: 750 mcg/ml
Experimental: as §1
Eleven log4 dilutions of the test compound were made covering a range that would allow survival of nonlethal mutants. The dilutions were made in Spizizen's minimal media with minute amounts of histidine and biotin (20 nM) each in […]. tubes. Each tube contained 3 ml. after dilution. Replicate 1 ml. aliquots of test organism were added to each tube including six "0" drug tubes. Final drug concentrations were calculated from 4-ml. volumes (3 ml. drug dilution +1 ml. test organism). Two of the "0" drug tubes were immediately plated at 10° dilution in minimal medium and 10^-5, 10^-6, 10^-7 dilutions in medium containing excess histidine (40 mcg/ml.) Spontaneous revertants (histidine+) were detected in the 10° dilution. Mutable population (histidine-) were detected in the 10^-5, 10^-6, and 10^-7 dilutions. All remaining dilutions were incubated in a Dubonoff shaker at 37° C. for 4 hr., then iced at 4° C. […] A 1-ml. aliquot from each "0" control was also plated at 10^-6, 10^-7, and 10^-8 dilutions in media with excess histidine to detect growth of mutable population (histidine-); normally there are 3-4 generations of the mutable population. All minimal media plates were counted. A dose response increase in revertants above spontaneous background indicated mutagenic potential of a test compound. […] Lethality has occurred to both populations, histidine+ and histidine-, at the same compound levels in all drugs tested to date.
The results are recorded as mutants test/mutants control.

[7] = test system: graft versus host reaction; assay: Graft versus host (GVH) reaction, spleen weight (Tables 20, 21); assay type: in vivo, mice (C57BL donors, F1 hybrid C57BL×C3H recipients)
Experimental: In this determination, […] (C57BL) mouse spleen cells are injected into mice of an F1 hybrid strain (C57BL×C3H). […] The injected cells, however, mount a reaction to the recipient's tissues due to the foreign C3H-derived antigens. As a consequence, the recipient's spleen becomes enlarged. Immunosuppressive therapy prevents or reduces this enlargement. Thus, spleen weights provide a measure of the GVH reaction and its reduction under immunosuppression.
Treated and GVH control animals receive an intraperitoneal injection of 1.2×10^9 splenic lymphocytes from the C57 donors. Spleens are weighed ten days later. Spleen weights derived from groups of recipient mice receiving genetically homologous, i.e., syngeneic cells (C57BL×C3H) provide normal control values for calculating percent inhibition in drug-treated groups. For example, mice given 13 daily topical doses of 1-(4,5,6,7-tetra-hydro-2-benzothiazolyl)-3-phenyl urea show a 62% reduction in GVH reaction relative to controls, as set forth in Table 20.
Using this procedure, three compounds from the above useful in the processes of this invention have been compared with several reference immunosuppressive drugs. Treatment levels defining the 50 percent inhibitory dose have been determined.

## COc1ccc2nc(NC(=O)Nc3ccccc3)sc2c1 [Table 11: phenyl, 6-CH3 O, S, 1-(6-methoxy-2-benzothiazolyl)-3-phenyl urea]
[1]; sc, subcutaneous, read-out: Lowest Dose Producing 75% Immunosuppression, Subcutaneous
  minimal effective dose: 0.8 to 1.6 mg/kg
[1]; oral, read-out: Lowest Dose Producing 75% Immunosuppression, Oral
  minimal effective dose: 12.5 to 25 mg/kg
[1]; percutaneous, read-out: Lowest Dose Producing 75% Immunosuppression, Percutaneous
  minimal effective dose: 12.5 mg/kg
[2]
  minimal effective dose: < 25 mg/kg
[3]
  IN VITRO QUALITATIVE ACTIVITY: N
[4]; 750 mcg/ml
  in vitro mutagenic potential: negative
[4]; histidine- auxotrophs of Salmonella typhimurium
  mutagenicity for point mutations (overall statement): non-mutagenic
[5]; 25 mg/kg/day in feed
  MST (mean survival time): 214 days
  Percent Survivors: 60%
[5]; 75 mg/kg/day in feed, 10 mice, 300 days
  Day of Death: 180,281
[5]; 75 mg/kg/day in feed
  MST (mean survival time): 286 days
  Percent Survivors: 80%
[5]; 300 days of therapy, 25 and 75 mg/kg/day
  effect on survival parameters: A dose-related effect of the drug on survival parameters
[5]; female NZBxW mice
  effect on life span: able to prolong the life of female NZBxW mice
[6]
  IN VITRO QUANTITATIVE MT/MC: .90
[7]; 1 mg/kg × 13, s.c.
  Percent GVH Inhibition: 22%
[7]; 2 mg/kg × 13, s.c.
  Percent GVH Inhibition: 58%

Source: patent US4153709A, “N-Heterocyclic ureas as immune regulants” (Eli Lilly and Company, priority 1977, dated 1979)
